Converted amounts (≈) assume the structure as drawn. Like-named read-outs stand apart in the source and are kept apart here.
Key:
[1] = tested on: Cladisporium resinae; experiment: PDA plate mycelial radial growth inhibition (paint film mildew fungi), Table 2; format: cell-based; details: read-out: EC50 (concentration giving 50% control of hyphal growth)
Description: (§1) The test was run as follows. Potato dextrose agar (PDA) was dissolved in water (30 g PDA/1) and autoclaved at 15 psi for 15 minutes. PDA was purchased from Difco. Triazoles were dissolved in a small quantity of methanol and added to autoclaved, molten potato dextrose agar in a dilution series to give 0.01, 0.1, 1, 10 and 100 ug ml^-1. Final methanol content of the highest dose was included. The molten agar was pipetted into Petri plates (15 ml per plate) and allowed to set. Two 5 mm mycelial plugs were removed from mother cultures of each of the fungal species tested, and were placed near the edge of the test plates. When colonies were 10-40 mm in diameter, the radial mycelial growth was measured and EC75 values were determined on log-probit paper.
(§2) EC50 values (concentration giving 50% control of hyphal growth) are reported.

[2] = tested on: Aspergillus flavus; experiment: as above; format: cell-based; details: read-out: EC50 (concentration giving 50% control of hyphal growth)
Description: as §1, §2

[3] = tested on: Poria placenta; experiment: Wood decay fungi radial growth inhibition on PDA, Table 7; format: cell-based; details: room temperature, read-out: EC50 (concentration giving 50% control of hyphal growth)
Description: (§3) The test was run as follows. Potato dextrose agar (PDA) was dissolved in water (39 g/l) and autoclaved at 15 psi for 15 min. PDA was purchased from Difco. The triazole was dissolved in a small quantity of dimethylsulfoxide (DMSO) and diluted to appropriate concentrations with the same solvent. Ten microliters of the appropriate solution was added to each of five wells of a Falcon 6 well tissue culture dish. To the sixth well was added ten microliters of DMSO as a control. Five ml of molten PDA was then added to each of the wells to give […] μg ml-1 of triazole. The plate was gently agitated to afford a uniform mixture. Upon cooling, the dishes were inoculated with a six mm agar plug from a freshly grown culture of the test organism. The assay plates were then incubated at room temperature and evaluated when the radial growth in the control well had reached approximately 30 mm. The radial growth for the treated wells was measured and the growth inhibition and EC50 values were calculated using non-linear regression analysis. Data are shown in Table 7 for triazoles VIII and IX (Table). EC50 values (concentration giving 50% control of hyphal growth) are reported.

[4] = tested on: Phialophora mutabilis; experiment: as above; format: cell-based; details: Coniochaeta mutabilis, room temperature, read-out: EC50 (concentration giving 50% control of hyphal growth)
Description: as §3

[5] = tested on: Gloeophyllum tradeum; experiment: as above; format: cell-based; details: read-out: EC50 (concentration giving 50% control of hyphal growth)
Description: as §3

[6] = tested on: Trametes Versicolor; experiment: as above; format: cell-based; details: room temperature, read-out: EC50 (concentration giving 50% control of hyphal growth)
Description: as §3

[7] = tested on: Aureobasidum pullulans; experiment: PDA plate mycelial radial growth inhibition (paint film mildew fungi), Table 2; format: cell-based; details: read-out: EC50 (concentration giving 50% control of hyphal growth)
Description: as §1, §2

[8] = tested on: Piricularia oryzae; experiment: microbe, parasite or virus in culture; format: cell-based; details: 72 h
[9] = tested on: Aspergillus niger; experiment: Paint film mildewcide popsickle stick test, Table 6; details: A. niger, 10 days, 30° C., 95% RH
Description: (§4) Testing is described below.
(§5) Testing was done in a commercial acrylic-based latex paint with conventional pigments, dispersants, and the like. Texanol (R) is trimethyl-1,3-pentanediol monisobutyrate supplied by Eastman Chemical. "Latex" is a latex of a copolymer of butyl acrylate and methyl methacrylate.
(§6) To a sealable container was charged 100 parts of the paint formulation and the desired triazole concentration. The sample was homogenized for 15 minutes each, then blended and remixed.
(§7) Three triazoles were evaluated for their effectiveness as paint film mildewcides at […] and 10 lbs/100 gallons in a laboratory popsickle stick test. Untreated controls were included in the test.
(§8) Duplicate popsickle sticks painted with the treated and untreated paint sample were inoculated with Aureobasidium pullulans and Aspergillus niger. The sticks were inoculated for 10 days at 30° C. and 95% RH and samples were rated for fungal growth.

[10] = tested on: Aureobasidium pullulans; experiment: as above; details: A. pullulans, 10 days, 30° C., 95% RH
Description: as §4, §5, §6, §7, §8

[11] = tested on: Alternaria solani; experiment: PDA plate mycelial radial growth inhibition (paint film mildew fungi), Table 1; format: cell-based; details: PDA plates, read-out: EC75 (concentration giving 75% control of hyphal growth)
Description: as §1
EC75 values (concentration giving 75% control of hyphal growth) are reported.

[12] = pH 3.5, read-out: EC90 for mycelial growth
[13] = pH 4.8, read-out: EC90 for mycelial growth
[14] = pH 5.4, read-out: EC90 for mycelial growth
[15] = pH 6.3, read-out: EC90 for mycelial growth
[16] = pH 7.2, read-out: EC90 for mycelial growth
[17] = pH 7.7, read-out: EC90 for mycelial growth
[18] = pH 8.7, read-out: EC90 for mycelial growth
[19] = pH 9.8, read-out: EC90 for mycelial growth
[20] = pH 11.2, read-out: EC90 for mycelial growth

| Compound | EC50 [1] [µg/mL] | EC50 [2] [µg/mL] | EC50 [3] [µg/mL] | EC50 [4] [µg/mL] | EC50 [5] [µg/mL] | EC50 [6] [µg/mL] | EC90 [8, 12] [µg/mL] | EC90 [8, 13] [µg/mL] | EC90 [8, 14] [µg/mL] | EC90 [8, 15] [µg/mL] | EC90 [8, 16] [µg/mL] | EC90 [8, 17] [µg/mL] | EC90 [8, 18] [µg/mL] | EC90 [8, 19] [µg/mL] | EC90 [8, 20] [µg/mL] | Fungal growth rating ([9]; replicate 1, 1 lbs/100 gal) | Fungal growth rating ([9]; replicate 1, 5 lbs/100 gal) | Fungal growth rating ([9]; replicate 1, 10 lbs/100 gal) | Fungal growth rating ([9]; replicate 2, 1 lbs/100 gal) | Fungal growth rating ([10]; replicate 1, 1 lbs/100 gal) | other results |
| --- | --- | --- | --- | --- | --- | --- | --- | --- | --- | --- | --- | --- | --- | --- | --- | --- | --- | --- | --- | --- | --- |
| N#CC(CCc1ccc(Cl)cc1)(Cn1cncn1)c1ccccc1 (stereo not drawn) [Structure VIII, α-[2-(4-chlorophenyl)ethyl]-α-phenyl-1H-1,2,4-triazole-1-propanenitrile] | 0.025 (≈ 0.0742 µM) | 3.5 (≈ 10.4 µM) | 0.175 (≈ 0.52 µM) | 0.612 (≈ 1.82 µM) | 0.158 (≈ 0.469 µM) | 0.061 (≈ 0.181 µM) | – | – | – | – | – | – | – | – | – | – | – | – | – | – | – |
| CCCCC(C#N)(Cn1cncn1)c1ccc(Cl)cc1 (stereo not drawn) [Structure IX, α-n-butyl-α-4-chlorophenyl-1H-1,2,4-triazole-1-propanenitrile] | 1.7 (≈ 5.89 µM) | 1.2 (≈ 4.16 µM) | 0.228 (≈ 0.79 µM) | 1.45 (≈ 5.01 µM) | 0.313 (≈ 1.08 µM) | 0.118 (≈ 0.409 µM) | – | – | – | – | – | – | – | – | – | – | – | – | – | – | EC50 [7]: 0.5 µg/mL (≈ 1.73 µM) |
| CCCCC(C#N)(Cn1cncn1)c1ccc(Cl)cc1 (stereo not drawn) [II, α-n-butyl-α-4-chlorophenyl-1H-1,2,4-triazole-1-propanenitrile] | – | – | – | – | – | – | 5 (≈ 17.3 µM) | 4.5 (≈ 15.6 µM) | 4.5 (≈ 15.6 µM) | 4.5 (≈ 15.6 µM) | 4.5 (≈ 15.6 µM) | 4.5 (≈ 15.6 µM) | 5 (≈ 17.3 µM) | 4.5 (≈ 15.6 µM) | 4.5 (≈ 15.6 µM) | 3+ | 2+ | 1+ | 2+ | 3+ | Fungal growth rating ([10]; replicate 1, 5 lbs/100 gal): 2+; Fungal growth rating ([10]; replicate 1, 10 lbs/100 gal): 2+; Fungal growth rating ([10]; replicate 2, 1 lbs/100 gal): 4+; Fungal growth rating ([10]; replicate 2, 5 lbs/100 gal): 2+; Fungal growth rating ([10]; replicate 2, 10 lbs/100 gal): 1+ |
| N#CC(CCc1ccc(Cl)cc1)(Cn1cncn1)c1ccccc1 (stereo not drawn) [I, α-[2-(4-chlorophenyl)ethyl]-α-phenyl-1H-1,2,4-triazole-1-propanenitrile] | – | – | – | – | – | – | 0.5 (≈ 1.48 µM) | 0.1 (≈ 0.297 µM) | 0.1 (≈ 0.297 µM) | 0.1 (≈ 0.297 µM) | 0.1 (≈ 0.297 µM) | 0.1 (≈ 0.297 µM) | 0.1 (≈ 0.297 µM) | 0.1 (≈ 0.297 µM) | 0.1 (≈ 0.297 µM) | 4+ | 4+ | 3+ | 4+ | 2+ | Fungal growth rating ([9]; replicate 2, 5 lbs/100 gal): 3+; Fungal growth rating ([9]; replicate 2, 10 lbs/100 gal): 3+; Fungal growth rating ([10]; replicate 2, 1 lbs/100 gal): 2+; EC75 [11]: 5 µg/mL (≈ 14.8 µM) |

— patent US5223178A (priority 1990, dated 1993)
